The record followed here is ChEMBL document CHEMBL4425168, “Dehydrozingerone Inspired Styryl Hydrazine Thiazole Hybrids as Promising Class of Antimycobacterial Agents” (ACS Med Chem Lett, 2016).

What all share (type): functional, organism-based
For test [1], the system named is Mycobacterium tuberculosis. Description: Antitubercular activity against Mycobacterium tuberculosis H37Rv INH-R1 harboring katG Y155 mutant after 5 days.
The test system of test [2] is Mycobacterium tuberculosis. As to the kind of experiment: Antitubercular activity against Mycobacterium tuberculosis H37Rv RIF-R1 harboring nrpoB S522L mutant after 5 days.
In test [3] the test system is Mycobacterium tuberculosis. As to the kind of experiment: Antitubercular activity against Mycobacterium tuberculosis H37Rv FQ-R1 harboring gyrB D94N mutant after 5 days.

≈ marks a conversion by molar mass, not a printed value. Some results are limits rather than exact numbers.

The IC50 is the concentration that inhibits the measured activity by half. Low readings indicate inhibition by little substance, high ones a need for much substance. As a reminder, the IC90 is the point of the concentration-response curve where the effect stands at 90%. A high value points to weaker potency. As usually defined, the MIC is the smallest concentration in the dilution series that meets the test's criterion for growth inhibition. In test [1], `COc1ccc(/C=C/C(C)=N/Nc2nc(-c3ccc(N)cc3)cs2)cc1OC` registered a half-inhibitory concentration (IC50) of 0.68 µM, a concentration for an effect of 90% (IC90) of 3.8 µM and an MIC of 3.2 µM (≈ 1.26 µg/mL). In test [2], this compound returned an IC50 of 0.54 µM, an IC90 of 2.6 µM and a minimum inhibitory concentration (MIC) of 2.2 µM (≈ 0.868 µg/mL). In test [3], this compound displayed an IC50 of 2.3 µM, an IC90 of 33 µM and a minimum inhibitory concentration (MIC) of 21 µM (≈ 8.28 µg/mL).
`COc1ccc(/C=C/C(C)=N/NC(N)=S)cc1OC`: in test [1], half-maximal inhibition (IC50) was put at 1.3 µM, the 90% effect concentration (IC90) turned out to be 6.6 µM and the MIC amounted to 5.3 µM (≈ 1.48 µg/mL). In test [2], this compound had a concentration for half-maximal inhibition (IC50) of 1.1 µM, a 90% effect concentration (IC90) of 4.6 µM and an MIC of 4 µM (≈ 1.12 µg/mL). Besides, in test [3], the 50% inhibitory concentration (IC50) worked out at 2.8 µM, the IC90 was found to be 16 µM and the MIC was 17 µM (≈ 4.75 µg/mL).
Take `COc1ccc(/C=C/C(C)=N/Nc2nc(-c3ccc(OC)c(OC)c3)cs2)cc1OC`: in test [1], the concentration for half-maximal inhibition (IC50) is 12 µM, the IC90 is greater than 200 µM and the minimal inhibitory concentration (MIC) came out at 24 µM (≈ 10.5 µg/mL). In test [2], the half-maximal inhibitory concentration (IC50) amounted to 9.2 µM, the concentration for an effect of 90% (IC90) amounted to 27 µM and the minimal inhibitory concentration (MIC) was found to be 28 µM (≈ 12.3 µg/mL). In test [3], this compound had a half-inhibitory concentration (IC50) of 18 µM, a concentration for an effect of 90% (IC90) greater than 200 µM and a minimum inhibitory concentration (MIC) of 30 µM (≈ 13.2 µg/mL).
Take `COc1ccc(-c2csc(N/N=C(C)/C=C/c3ccc(OC)c(OC)c3)n2)cc1`: in test [1], inhibition was half-maximal at 12 µM (IC50), the IC90 is greater than 50 µM and the MIC is 15 µM (≈ 6.14 µg/mL). In test [2], this compound registered a concentration for half-maximal inhibition (IC50) of 11 µM, a concentration for an effect of 90% (IC90) greater than 50 µM and a minimal inhibitory concentration (MIC) of 25 µM (≈ 10.2 µg/mL). Besides, in test [3], inhibition was half-maximal at 23 µM (IC50), the IC90 was greater than 50 µM and the MIC is 22 µM (≈ 9.01 µg/mL).
For `COc1ccc(/C=C/C(C)=N/Nc2nc(-c3c(OC)cccc3OC)cs2)cc1OC`, in test [1], half-maximal inhibition (IC50) was put at 9.1 µM, the 90% effect concentration (IC90) was greater than 25 µM and the minimal inhibitory concentration (MIC) turned out to be 32 µM (≈ 14.1 µg/mL). For the same compound, in test [2], half-maximal inhibition (IC50) required 7 µM, it took 19 µM to reach the 90% level (IC90) and the minimum inhibitory concentration (MIC) was 17 µM (≈ 7.47 µg/mL). In test [3], half-maximal inhibition (IC50) required 13 µM, the IC90 was greater than 25 µM and the minimal inhibitory concentration (MIC) is 33 µM (≈ 14.5 µg/mL).
In test [1], `NNC(=O)c1ccncc1` [ISONIAZID] registered an IC50 greater than 200 µM, a concentration for an effect of 90% (IC90) greater than 200 µM and a minimum inhibitory concentration (MIC) greater than 200 µM. In test [2], this compound gave an IC50 of 0.15 µM, an IC90 of 0.21 µM and an MIC of 0.17 µM (≈ 0.0233 µg/mL). In test [3], this compound gave an IC50 of 0.36 µM, a 90% effect concentration (IC90) of 0.47 µM and a minimum inhibitory concentration (MIC) of 0.35 µM (≈ 0.048 µg/mL).
In test [1], `C[C@H]1COc2c(N3CCN(C)CC3)c(F)cc3c(=O)c(C(=O)O)cn1c23.C[C@H]1COc2c(N3CCN(C)CC3)c(F)cc3c(=O)c(C(=O)O)cn1c23.O` [LEVOFLOXACIN] showed an IC50 of 0.64 µM, a 90% effect concentration (IC90) of 1.4 µM and a minimal inhibitory concentration (MIC) of 1.2 µM. Moreover, in test [2], 0.59 µM corresponded to half-maximal inhibition (IC50), the IC90 stood at 0.91 µM and the minimum inhibitory concentration (MIC) was determined as 0.76 µM. In test [3], this compound showed an IC50 of 12 µM, an IC90 of 22 µM and a minimal inhibitory concentration (MIC) of 20 µM.
Consider `CO[C@H]1/C=C/O[C@@]2(C)Oc3c(C)c(O)c4c(O)c(c(/C=N/N5CCN(C)CC5)c(O)c4c3C2=O)NC(=O)/C(C)=C\C=C\[C@H](C)[C@H](O)[C@@H](C)[C@@H](O)[C@@H](C)[C@H](OC(C)=O)[C@@H]1C` [RIFAMPIN], for which, in test [1], the IC50 amounted to 0.0084 µM, it took 0.022 µM to reach the 90% level (IC90) and the MIC was 0.018 µM (≈ 0.0148 µg/mL). In test [2], this compound showed an IC50 of 1.2 µM, an IC90 of 2.3 µM and a minimum inhibitory concentration (MIC) of 2 µM (≈ 1.65 µg/mL). In test [3], this compound displayed an IC50 of 0.013 µM, a concentration for an effect of 90% (IC90) of 0.039 µM and a minimum inhibitory concentration (MIC) of 0.027 µM (≈ 0.0222 µg/mL).
